Measurements from PMC9502466, “Identification of SARS-CoV-2 Main Protease Inhibitors from a Library of Minor Cannabinoids by Biochemical Inhibition Assay and Surface Plasmon Resonance Characterized Binding Affinity” (Molecules, 2022).
pIC50: −log10 of the molar value. Where “and” joins values, the source holds several entries; their conditions need not be identical. Identical values can stand only once. Like-named read-outs stand apart in the source and are kept apart here.

What was measured:
SARS-CoV-2 M^pro [1] = target: T1, SARS-CoV-2 M^pro (Severe acute respiratory syndrome coronavirus 2, UniProt P0DTD1); test: biochemical; conditions: for inhibition at 10 µM: read-out: inhibition rate of SARS-CoV-2 M^pro activity, 10 μM; for pIC50: IC50
[2] = tested on: pseudovirus expressing the SARS-CoV-2 spike protein; conditions: cited from earlier work
SARS-CoV-2 M^pro [3] = target: T1, SARS-CoV-2 M^pro; parameters: method as in PMID 33290767; conditions: in vitro, cited from earlier work

Molecule: 11-nor-Δ^8-tetrahydrocannabinol-9-Carboxylic acid [11-OH-THC]
- inhibition rate of SARS-CoV-2 M^pro activity (SARS-CoV-2 M^pro [1]; 10 µM): 56.0%

Molecule: C=C(C)[C@@H]1C[C@H](O)C(C)=C[C@H]1c1c(O)cc(CCCCC)cc1O [6α-OH-CBD, 6α-hydroxy cannabidiol]
- inhibition at 10 µM (SARS-CoV-2 M^pro [1]): 14.7%

Molecule: CCCCCc1cc(O)c2c(c1)OC(C)(CCC=C(C)C)C=C2 (centres unmarked) [CBC, cannabichromene]
- inhibition at 10 µM (SARS-CoV-2 M^pro [1]): 42.1%

Molecule: CCCCCc1cc2c(c(O)c1C(=O)O)C=CC(C)(CCC=C(C)C)O2 (centres unmarked) [CBCA, cannabichromenic acid]
- inhibition at 10 µM (SARS-CoV-2 M^pro [1]): < 10%

Molecule: CCCc1cc2c(c(O)c1C(=O)O)C=CC(C)(CCC=C(C)C)O2 (centres unmarked) [CBCVA, cannabichromevarinic acid]
- inhibition at 10 µM (SARS-CoV-2 M^pro [1]): < 10%

Molecule: C=C(C)[C@@H]1CCC(C)=C[C@H]1c1c(O)cc(CCCCC)cc1O [CBD, cannabidiol, reference compound]
- inhibition at 50 µM (SARS-CoV-2 M^pro [1]): 13.2%
- inhibition at 250 µM (SARS-CoV-2 M^pro [1]): 23%
- inhibition at 10 µM (SARS-CoV-2 M^pro [1]): 8.74%

Molecule: C=C(C)[C@@H]1CCC(C)=C[C@H]1c1c(O)cc(CCCCC)c(C(=O)O)c1O [CBDA, cannabidiolic acid]
- inhibition at 2 µM (SARS-CoV-2 M^pro [1]; 2 μM): 11.9%
- inhibition at 50 µM (SARS-CoV-2 M^pro [1]): 84.8%
- inhibition at 250 µM (SARS-CoV-2 M^pro [1]): 101%
- inhibition at 10 µM (SARS-CoV-2 M^pro [1]): 29.4%
- effect on pseudovirus infection (in words) [2]: block the infection

Molecule: C=C(C)[C@@H]1CCC(C)=C[C@H]1c1c(O)cc(CCCCC)c(C(=O)OC)c1O [CBDAME, cannabidiolic acid methyl ester]
- inhibition at 10 µM (SARS-CoV-2 M^pro [1]): 13.7%

Molecule: C=C(C)[C@@H]1CCC(C)=C[C@H]1c1c(O)cc(CCCC)cc1O [CBDB, cannabidibutol]
- inhibition at 10 µM (SARS-CoV-2 M^pro [1]): 19.4%

Molecule: C=C(C)[C@@H]1CCC(C)=C[C@H]1c1c(O)cc(CCCCCCC)cc1O [CBDP, cannabidiphorol]
- inhibition at 10 µM (SARS-CoV-2 M^pro [1]): 6.55%

Molecule: C=C(C)[C@@H]1CCC(C)=C[C@H]1c1c(O)cc(CCC)cc1O [CBDV, cannabidivarin]
- inhibition at 10 µM (SARS-CoV-2 M^pro [1]): 6.87%

Molecule: CCCCCc1cc(O)c(C/C=C(\C)CCC=C(C)C)c(O)c1 [CBG, cannabigerol]
- inhibition at 10 µM (SARS-CoV-2 M^pro [1]): 25.4%

Molecule: CCCCCc1cc(O)c(C/C=C(\C)CCC=C(C)C)c(O)c1C(=O)O [CBGA, cannabigerolic acid]
- inhibition rate of SARS-CoV-2 M^pro activity (SARS-CoV-2 M^pro [1]; 10 μM): > 70%
- inhibition at 12.5 µM (SARS-CoV-2 M^pro [1]; 12.5 μM): 6%
- inhibition at 25 µM (SARS-CoV-2 M^pro [1]; 25 μM): 8%
- inhibition at 50 µM (SARS-CoV-2 M^pro [1]): 18.5%
- inhibition at 100 µM (SARS-CoV-2 M^pro [1]; 100 μM): 18.2%
- inhibition at 250 µM (SARS-CoV-2 M^pro [1]): 72.9%
- pIC50 (SARS-CoV-2 M^pro [1]): 4.84 and 4.68
- inhibition at 10 µM (SARS-CoV-2 M^pro [1]): 72.9%
- effect on pseudovirus infection (in words) [2]: block the infection

Molecule: CCCCCc1cc(O)c2c(c1)OC1(C)CCC3C1C2C3(C)C (centres unmarked) [CBL, cannabicyclol]
- inhibition at 10 µM (SARS-CoV-2 M^pro [1]): 31.1%

Molecule: CCCCCc1cc(O)c2c(c1)OC(C)(C)c1ccc(C)cc1-2 [CBN, cannabinol]
- pIC50 (SARS-CoV-2 M^pro [3]): 5.10
- inhibition at 10 µM (SARS-CoV-2 M^pro [1]): 28.7%

Molecule: C=C(C)c1ccc(C)cc1-c1c(O)cc(CCCCC)cc1O [CBND, cannabinodiol]
- inhibition at 10 µM (SARS-CoV-2 M^pro [1]): < 10%

Molecule: CCCCCc1cc2c3c(c1)OC(C)(C)C1CCC(C)(CC31)O2 (centres unmarked) [CBT, cannabicitran]
- inhibition at 10 µM (SARS-CoV-2 M^pro [1]): < 10%

Molecule: O=C[C@H](C[C@@H]1CCNC1=O)NC(=O)[C@H](Cc1cccc(F)c1)NC(=O)c1cc2ccccc2[nH]1 [M^pro 11b, reference compound]
- inhibition rate of SARS-CoV-2 M^pro activity (SARS-CoV-2 M^pro [1]; 10 µM): > 98%

Molecule: Cc1cc(C(=O)N[C@@H](C)C(=O)N[C@H](C(=O)N[C@@H](CC(C)C)C(=O)N[C@H](/C=C/C(=O)OCc2ccccc2)C[C@@H]2CCNC2=O)C(C)C)no1 [M^pro N3, reference compound]
- inhibition rate of SARS-CoV-2 M^pro activity (SARS-CoV-2 M^pro [1]; 10 µM): > 98%

Molecule: CCCCc1cc(O)c2c(c1)OC(C)(C)[C@@H]1CCC(C)=C[C@@H]21 [THCB, Δ^9-tetrahydrocannabibutol]
- inhibition rate of SARS-CoV-2 M^pro activity (SARS-CoV-2 M^pro [1]; 10 μM): > 70%
- pIC50 (SARS-CoV-2 M^pro [1]): 5.44
- inhibition at 10 µM (SARS-CoV-2 M^pro [1]): 81%

Molecule: CCCCCc1cc(O)c2c(c1)OC(C)(C)[C@@H]1CCC(C)=C[C@@H]21 [Δ^9-THC, Δ^9-tetrahydrocannabinol, reference compound]
- pIC50 (SARS-CoV-2 M^pro [3]; read-out: IC50): 4.99
